We go through 1 compound from US7267815B2, “Methods and reagents for the enhancement of virus transduction in the bladder epithelium” (priority 2002, dated 2007).

Where only a bound is given, the exact number is not on record here.

This test relates to mice bladder urothelium. Briefly: Effects of different diluents on adenovirus infectivity after DDM pretreatment. The test is classed as in vivo, Balb/c Mouse. As to conditions: DDM pretreatment (QQ5 minQ); virus diluted 100 fold with different diluents, 45 min, 1×10^9 vp/dose. The protocol:
• Species: Female Balb/c Mouse (Taconic Laboratory)—2/group • Study Design: To test the effects of different diluents on Adenovirus infectivity of mice urothelium followed DDM pretreatment (QQ5 minQ). The virus would be diluted 100 fold with the diluents prior to instillation into mice bladder for 45 min. • Dose/Route:
Dodecyl-β-D-Maltoside (Lot #100K5308).
All the animals had >90% in Ad-βgal gene expression in mice bladder. Adenovirus Dose Titration with Different Chemical Agents Pretreatment on SD Rat Bladder Epithelium • Species: Female Sprague Dawley Rat (Taconic Laboratory)—2/group • Study Design: To test the virus infectivity of rat bladder epithelium with different doses of Adenovirus following the pretreatment with SDS or DDM. This study also explored relationship between bladder volume and residual of SDS or DDM for adenovirus infectivity. • Dose/Route: […]

Take `CCCCCCCCCCCCO[C@@H]1O[C@H](CO)[C@@H](O[C@H]2O[C@H](CO)[C@@H](O)[C@H](O)[C@H]2O)[C@H](O)[C@H]1O` [n-dodecyl β-D-maltoside, n-dodecyl-β-D-maltoside]: the “Ad-βgal gene expression in mice bladder” value is over 90%.
